Results from patent US20130078718A1, “CONVERSION OF VASCULAR ENDOTHELIAL CELLS INTO MULTIPOTENT STEM-LIKE CELLS” (PRESIDENT AND FELLOWS OF HARVARD COLLEGE, priority 2010, published 2013).
“Also recorded” adds a separate entry of the source.

Tested on: Human umbilical vein endothelial cells (HUVECs) and human cutaneous microvascular endothelial cells (HCMECs)
Test: Endothelial-mesenchymal transition (EndMT) in endothelial cells: morphology, marker expression by immunoblotting, flow cytometry, real-time PCR, ELISA
Type: cell-based
Details: for FSP-1, α-SMA, and N-cadherin levels (immunoblotting) / VE-cadherin, CD31, and vWF levels (immunoblotting): 10 ng ml−1, 48 h; for EndMT-associated transcription factors Snail, Slug, ZEB-1, SIP-1, LEF-1, Twist (ELISA): 10 ng ml−1, compared to control cells; for FSP-1 and α-SMA levels (immunoblotting) / TIE-2 expression levels (immunoblotting) / VE-cadherin levels (immunoblotting) / co-staining for endothelial marker TIE2 and mesenchymal marker FSP-1 (fluorescence microscopy or flow cytometry) / expression of genes associated with EndMT (FSP-1, α-SMA, N-cadherin, fibronectin, Snail, Slug, ZEB-1, SIP-1, LEF-1, Twist), real-time quantitative PCR / cell morphology (DIC imaging): 10 ng/mL, 48 hours; for expression of genes associated with EndMT (FSP-1, α-SMA, N-cadherin, fibronectin, Snail, Slug, ZEB-1, SIP-1, LEF-1, Twist), real-time quantitative PCR: compared to control cells; for cell morphology (DIC imaging): serum free medium
Description: Human umbilical vein endothelial cells (HUVEC) and human cutaneous microvascular endothelial cells (HCMEC) were provided by J. Bischoff (Children's Hospital Boston) and isolated as previously described^35. […] Cells were grown in culture using EGM-2 medium (Cambrex), containing 10% FBS and 1% Penicillin/Streptomycin, followed by human endothelial serum free medium (Gibco) 24 hours prior to all experimental conditions. Bone marrow derived mesenchymal stem cells (ScienCell Research Laboratories) were grown in mesenchymal stem cell medium (ScienCell Research Laboratories). Human corneal fibroblasts, from a stock initially provided by E. Hay (Harvard Medical School), were grown in RPMI medium, containing 10% FBS and 1% Penicillin/Streptomycin. Primary human osteoblasts, chondrocytes, and adipocytes and their respective growth media were obtained from Cell Applications Inc. Recombinant TGF-β2 and BMP4 proteins (R&D Systems) were added to the serum free culture medium for all relevant experiments at a concentration of 10 ng/mL. Cells were treated for 15 minutes to assess ALK2 phosphorylation, 1 hour to measure Smad5 phosphorylation, or 48 hours to induce EndMT. All experiments for this study were performed at minimum in triplicate.
Immunoassays were performed using the following antibodies at concentrations (and using protocols) recommended by the respective manufacturers: FSP-1 (H00006275-M01; Stressgen), ALK2 (sc-5671), Phospho-tyrosine (sc-7020), VE-cadherin (sc-6458), TIE2 (sc-324, sc-9026), STRO-1 (sc-47733), CD44 (sc-71220), CD90 (sc-9163), Osteocalcin (sc-74495, sc-23790), SOX9 (sc-20095), COL2A1 (sc-59958, sc-52658), PPARγ2 (sc-22022; Santa Cruz Biotechnology), vWF (ab68545; Abcam); His (A00174; GenScript); α-SMA (A5228), β-actin (A1978; Sigma-Aldrich). Samples were run with Criterion precast SDS-PAGE Gels (Bio-Rad). HRP-conjugated IgG TrueBlot reagents (18-8814, 18-8816, 18-8817; eBioscience) were used at a dilution of 1:1000. TrueBlot IgG beads (eBioscience) were used for immunoprecipitation experiments. Alexa Fluor secondary antibodies (Invitrogen) were used at a dilution of 1:200. Images were acquired using a Nikon 80i fluorescence microscope.
Endothelial cells were stained in suspension using antibodies against TIE2, FSP-1, STRO-1, and His (described above) and the protocols provided by their respective manufacturer. Flow cytometry was performed at the Harvard Medical School, Department of Pathology flow cytometry core facility using a FACSDCalibur (BD Biosciences) cell sorter isolating 30,000 cells per sample.
RNA extractions were performed using the RNeasy Mini kit (Qiagen) and protocol. RNA samples were submitted to a core facility (Biopolymers Facility, Department of Genetics, Harvard Medical School) where real-time PCR experiments were conducted using the Syber Green PCR system (ABI) on an ABI 7500 cycler, with 40 cycles per sample. Cycling temperatures were as follows: denaturing 95° C.; annealing 60° C.; extension, 70° C. The following primers (Integrated DNA Technologies) were used: […]
Human umbilical vein endothelial cells (HUVEC) and human cutaneous microvascular endothelial cells (HCMEC) isolated as previously described (35). […] Cells were grown in culture using EGM-2 medium (Cambrex), containing 10% FBS and 1% Penicillin/Streptomycin, followed by human endothelial serum free medium (Gibco) 24 h prior to all experimental conditions.

Substance	effect on EndMT (stimulation)	FSP-1, α-SMA, and N-cadherin levels (immunoblotting)	VE-cadherin, CD31, and vWF levels (immunoblotting)	EndMT-associated transcription factors Snail, Slug, ZEB-1, SIP-1, LEF-1, Twist (ELISA)	FSP-1 and α-SMA levels (immunoblotting)	TIE-2 expression levels (immunoblotting)	VE-cadherin levels (immunoblotting)	co-staining for endothelial marker TIE2 and mesenchymal marker FSP-1 (fluorescence microscopy or flow cytometry)	expression of genes associated with EndMT (FSP-1, α-SMA, N-cadherin, fibronectin, Snail, Slug, ZEB-1, SIP-1, LEF-1, Twist), real-time quantitative PCR	cell morphology (DIC imaging)	VE-cadherin, FSP-1, CD44, CD90 expression in clonal populations (multiplex ELISA) (three clonal populations of HUVEC and HCMEC, 48 h)
TGF-β2: Recombinant TGF-β2 protein (R&D Systems), ALK2 activating ligand, used at 10 ng/mL	stimulators of EndMT; also recorded: stimulate EndMT	increased	decreased	much higher	increased	remained unchanged; also recorded: remain constant	significantly decreased	staining for both	much higher	distinct change from cobblestone-like endothelial cell morphology to fibroblast-like morphology	decreased expression of VE-cadherin and increased expression of FSP-1, CD44, and CD90
BMP4: Recombinant BMP4 protein (R&D Systems), ALK2 activating ligand, used at 10 ng/mL	stimulators of EndMT; also recorded: stimulate EndMT	increased	decreased	much higher	increased	remained unchanged; also recorded: remain constant	significantly decreased	staining for both	much higher	distinct change from cobblestone-like endothelial cell morphology to fibroblast-like morphology	–
